Experimental data taken from US7521478B2, “Total synthesis of myriaporones” (Pharma Mar, S.A.U., priority 2002, dated 2009).

Legend:
Format in all cases: cell-based
DU-145 = experiment: Inhibition of cell growth by colorimetric SRB assay, DU-145; details: Homo sapiens, DU-145, 48 hours exposure; for CC50: cell killing, read-out: LC50 (the source's name); for IC (total growth inhibition): read-out: TGI
Description: (§1) The finality of these assays is to interrupt the growth of a “in vitro” tumor cell culture by means a continued exhibition of the cells to the sample to be testing.
(§2) Inhibition of Cell Growth by Colorimetric Assay.
(§3) A colorimetric type of assay, using sulforhodamine B (SRB) reaction has been adapted for a quantitative measurement of cell growth and viability (following the technique described by P. A. Skehan, et al., J. Natl. CancerInst. 1990, 82, 1107-1112).
(§4) This form of assay employs 96 well cell culture microplates of 9 mm diameter (T. Mosmann et al., J. of Immuological Methods 1983, 65, 55-63; G. T. Faircloth et al., J. of Tissue and Culture Methods 1988, 11, 201-205). Most of the cell lines are obtained from American Type Culture Collection (ATCC) derived from different human cancer types.
(§5) Cells are maintained in RPMI 1640 10% FBS, supplemented with 0.1 g/L penicillin and 0.1 g/L streptomycin sulfate and then incubated at 37° C., 5% CO2 and 98% humidity. For the experiments, cells were harvested from subconfluent cultures using trypsin and resuspended in fresh medium before plating.
(§6) Cells are seeded in 96 well microtiter plates, at 5×10^3 cells per well in aliquots of 195 μL medium, and they are allowed to attach to the plate surface by growing in drug free medium for 18 hours. Afterward, samples are added in aliquots of 5 μL in a ranging from 10 to 10^−8 μg/mL, dissolved in DMSO/EtOH/PBS (0.5:0.5:99). After 48 hours exposure, the antitumor effect are measured by the SRB methodology: cells are fixed by adding 50 μL of cold 50% (wt/vol) trichloroacetic acid (TCA) and incubated for 60 minutes at 4° C. Plates are washed with deionizer water and dried. One hundred μl of SRB solution (0.4% wt/vol in 1% acetic acid) is added to each microliter well and incubated for 10 minutes at room temperature. Unbound SRB is removed by washing with 1% acetic acid. Plates are air dried and bound stain is solubilized with Tris buffer. Optical densities are read on a automated spectrophotometric plate reader at a single wavelength of 490 nm.
(§7) The values for mean +/−SD of data from triplicate wells are calculated. Some parameters for cellular responses can be calculated: GI=growth inhibition, TGI=total growth inhibition (cytostatic effect) and LC=cell killing (cytotoxic effect).

LNCaP = experiment: Inhibition of cell growth by colorimetric SRB assay, LN-caP; details: Homo sapiens, LN-caP, 48 hours exposure; for CC50: cell killing, read-out: LC50 (the source's name); for IC (total growth inhibition): read-out: TGI
Description: as §1, §2, §3, §4, §5, §6, §7

IGROV = experiment: Inhibition of cell growth by colorimetric SRB assay, IGROV; details: Homo sapiens, 48 hours exposure; for CC50: cell killing, read-out: LC50 (the source's name); for IC (total growth inhibition): read-out: TGI
Description: as §1, §2, §3, §4, §5, §6, §7

IGROV-ET = experiment: Inhibition of cell growth by colorimetric SRB assay, IGROV-ET; details: Homo sapiens, IGROV-ET, 48 hours exposure; for CC50: cell killing, read-out: LC50 (the source's name); for IC (total growth inhibition): read-out: TGI
Description: as §1, §2, §3, §4, §5, §6, §7

SK-MEL-28 = experiment: Inhibition of cell growth by colorimetric SRB assay, MEL-28; details: Homo sapiens, SK-MEL-28, MEL-28, 48 hours exposure; for CC50: cell killing, read-out: LC50 (the source's name); for IC (total growth inhibition): read-out: TGI
Description: as §1, §2, §3, §4, §5, §6, §7

A-549 = experiment: Inhibition of cell growth by colorimetric SRB assay, A-549; details: Homo sapiens, A549, A-549, 48 hours exposure; for CC50: cell killing, read-out: LC50 (the source's name); for IC (total growth inhibition): read-out: TGI
Description: as §1, §2, §3, §4, §5, §6, §7

K-562 = experiment: Inhibition of cell growth by colorimetric SRB assay, K-562; details: Homo sapiens, K562, K-562, 48 hours exposure; for CC50: cell killing, read-out: LC50 (the source's name); for IC (total growth inhibition): read-out: TGI
Description: as §1, §2, §3, §4, §5, §6, §7

PANC-1 = experiment: Inhibition of cell growth by colorimetric SRB assay, PANC-1; details: Homo sapiens, PANC-1, 48 hours exposure; for CC50: cell killing, read-out: LC50 (the source's name); for IC (total growth inhibition): read-out: TGI
Description: as §1, §2, §3, §4, §5, §6, §7

HT-29 = experiment: Inhibition of cell growth by colorimetric SRB assay, HT-29; details: Homo sapiens, HT-29, 48 hours exposure; for CC50: cell killing, read-out: LC50 (the source's name); for IC (total growth inhibition): read-out: TGI
Description: as §1, §2, §3, §4, §5, §6, §7

LoVo = experiment: Inhibition of cell growth by colorimetric SRB assay, LOVO; details: Homo sapiens, LOVO, 48 hours exposure; for LC50: cell killing, read-out: LC50; for IC (total growth inhibition): read-out: TGI
Description: as §1, §2, §3, §4, §5, §6, §7

LoVo-Dox = experiment: Inhibition of cell growth by colorimetric SRB assay, LOVO-DOX; details: Homo sapiens, LOVO-DOX, 48 hours exposure; for LC50 (concentration for 50% cell killing): read-out: LC50; for IC (total growth inhibition): read-out: TGI
Description: as §1, §2, §3, §4, §5, §6, §7

HeLa = experiment: Inhibition of cell growth by colorimetric SRB assay, HELA; details: Homo sapiens, HELA, 48 hours exposure; for CC50: cell killing, read-out: LC50 (the source's name); for IC (total growth inhibition): read-out: TGI
Description: as §1, §2, §3, §4, §5, §6, §7

HeLa-APL = experiment: Inhibition of cell growth by colorimetric SRB assay, HELA-APL; details: Homo sapiens; for GI50 / IC (total growth inhibition): 48 h; for IC (total growth inhibition): read-out: TGI; for CC50: HELA-APL, 48 hours exposure, cell killing, read-out: LC50 (the source's name)
Description: as §1, §2, §3, §4, §5, §6, §7

Row | SMILES | GI50 (DU-145) | CC50 (DU-145) | IC (total growth inhibition) (DU-145) | GI50 (LNCaP) | CC50 (LNCaP) | IC (total growth inhibition) (LNCaP) | GI50 (IGROV) | CC50 (IGROV) | IC (total growth inhibition) (IGROV) | GI50 (IGROV-ET) | CC50 (IGROV-ET) | IC (total growth inhibition) (IGROV-ET) | GI50 (SK-MEL-28) | CC50 (SK-MEL-28) | IC (total growth inhibition) (SK-MEL-28) | GI50 (A-549) | CC50 (A-549) | IC (total growth inhibition) (A-549) | GI50 (K-562) | CC50 (K-562) | also measured
1 | C/C=C\[C@H](C)[C@H]1OC1(C)[C@@H](O[Si](C)(C)C(C)(C)C)[C@@H](COC(C)=O)C(=O)[C@H](COC(C)=O)[C@H](O)CC(=O)CC (some centres unmarked) [Compound 44] | 4.99 µM | 17.5 µM | 10.4 µM | 3.77 µM | 16.6 µM | 7.88 µM | 4.13 µM | 14.2 µM | 7.67 µM | 4.15 µM | 15.8 µM | 8.09 µM | 3.84 µM | 12.6 µM | 6.96 µM | 4.01 µM | 15.4 µM | 7.87 µM | 6.1 µM | 17.5 µM | IC (total growth inhibition) (K-562): 11.4 µM; GI50 (PANC-1): 3.73 µM; CC50 (PANC-1): 13.8 µM; IC (total growth inhibition) (PANC-1): 7.2 µM; GI50 (HT-29): 6.22 µM; CC50 (HT-29): 17 µM; IC (total growth inhibition) (HT-29): 17.5 µM; GI50 (LoVo): 4.05 µM; LC50 (LoVo): 17.5 µM; IC (total growth inhibition) (LoVo): 8.99 µM; GI50 (LoVo-Dox): 4.27 µM; LC50 (concentration for 50% cell killing) (LoVo-Dox): 17.5 µM; IC (total growth inhibition) (LoVo-Dox): 8.9 µM; GI50 (HeLa): 3.91 µM; CC50 (HeLa): 14.7 µM; IC (total growth inhibition) (HeLa): 7.59 µM; GI50 (HeLa-APL): 3.77 µM; IC (total growth inhibition) (HeLa-APL): 9.83 µM; CC50 (HeLa-APL): 17.5 µM
2 | C/C=C\[C@H](C)[C@H]1OC1(C)[C@@H](O[Si](C)(C)C(C)(C)C)[C@@H](COC(C)=O)C(=O)[C@H](CO)[C@@H](O)CC(=O)CC (some centres unmarked) [Compound 46] | 9.65 µM | 18.9 µM | 18.9 µM | 5.24 µM | 15.6 µM | 9.06 µM | 7.74 µM | 18.9 µM | 18.9 µM | 7.39 µM | 18.9 µM | 18.9 µM | 9.89 µM | 18.9 µM | 18.9 µM | 13.4 µM | 18.9 µM | 18.9 µM | 12 µM | 18.9 µM | IC (total growth inhibition) (K-562): 18.9 µM; GI50 (PANC-1): 7.38 µM; CC50 (PANC-1): 18.9 µM; IC (total growth inhibition) (PANC-1): 18.9 µM; GI50 (HT-29): 15 µM; CC50 (HT-29): 18.9 µM; IC (total growth inhibition) (HT-29): 18.9 µM; GI50 (LoVo): 4.37 µM; LC50 (LoVo): 18.9 µM; IC (total growth inhibition) (LoVo): 10 µM; GI50 (LoVo-Dox): 6.15 µM; LC50 (concentration for 50% cell killing) (LoVo-Dox): 18.9 µM; IC (total growth inhibition) (LoVo-Dox): 18.9 µM; GI50 (HeLa): 8.81 µM; CC50 (HeLa): 18.9 µM; IC (total growth inhibition) (HeLa): 18.9 µM; GI50 (HeLa-APL): 10.1 µM; CC50 (HeLa-APL): 18.9 µM
3 | C/C=C\[C@H](C)[C@H]1OC1(C)[C@@H](O[Si](C)(C)C(C)(C)C)[C@@H](COC(C)=O)C(=O)[C@H](CO)[C@H](O)CC(=O)CC (some centres unmarked) [Compound 43] | 4.99 µM | 18.7 µM | 9.66 µM | 3.78 µM | 15.4 µM | 7.62 µM | 4.94 µM | 18.9 µM | 9.99 µM | 4.52 µM | 17.8 µM | 8.96 µM | 3.9 µM | 13.4 µM | 7.24 µM | 4.44 µM | 16.2 µM | 8.49 µM | 3.59 µM | 16.5 µM | IC (total growth inhibition) (K-562): 7.72 µM; GI50 (PANC-1): 3.73 µM; CC50 (PANC-1): 13.2 µM; IC (total growth inhibition) (PANC-1): 7.02 µM; GI50 (HT-29): 4.24 µM; CC50 (HT-29): 16.2 µM; IC (total growth inhibition) (HT-29): 8.28 µM; GI50 (LoVo): 4.03 µM; LC50 (LoVo): 18.9 µM; IC (total growth inhibition) (LoVo): 9.06 µM; GI50 (LoVo-Dox): 3.31 µM; LC50 (concentration for 50% cell killing) (LoVo-Dox): 15.7 µM; IC (total growth inhibition) (LoVo-Dox): 7.21 µM; GI50 (HeLa): 4.37 µM; CC50 (HeLa): 16.4 µM; IC (total growth inhibition) (HeLa): 8.47 µM; GI50 (HeLa-APL): 4.27 µM; IC (total growth inhibition) (HeLa-APL): 9.34 µM; CC50 (HeLa-APL): 18.9 µM
